This passage reports MIC and IC50 results from patent US11773092B1, “Pyrido[3,4-b]indol-1-one compounds as antibacterial agents” (KING FAISAL UNIVERSITY, priority 2023, dated 2023).

Each structure is given as a SMILES string. Values after ≈ are worked out from the molar mass of the structure shown. Read-outs that look alike come from different tables or passages of the source.

Assay [1] has as its system Mycobacterium tuberculosis H37Rv strain. Briefly: Anti-tubercular alamar blue microplate MIC. Format: cell-based. The settings on record: 168 h, M. tuberculosis H37Rv, seven days incubation, read-out: anti-mycobacterial activity (MIC). A general note: Alamar Blue is a resazurin reagent that responds to reducing activity.
The target in another assay is T1, DNA gyrase from E. coli (Escherichia coli, UniProt P0AES4+P0AES6).
T1 construct: purchased Inspiralis
Briefly: Inhibitory activity on E. coli DNA gyrase (Inspiralis assay). Format: biochemical. The procedure:
Inhibitory potencies were investigated utilizing the Inspiralis assay on streptavidin-coated 96-well microtiter plates. First, the plates were rehydrated with buffer (20 mM Tris-HCl with pH 7.6, 0.01% w/v BSA, 0.05% v/v Tween 20, 137 mM NaCl) and the biotinylated oligonucleotide was then immobilized. After washing off the unbound oligonucleotide, the enzyme test was performed. […] Reaction solutions were incubated at 37° C. for 30 min. After that, the TF buffer (50 mM NaOAc with pH 5.0, 50 mM NaCl and 50 mM MgCl2) was added to terminate the enzymatic reaction. After additional incubation for 30 min at rt, during which biotinoligonucleotide-plasmid triplex was formed, the unbound plasmid was washed off using TF buffer and SybrGOLD in T10 buffer (10 mM Tris HCl with pH 8.0 and 1 mM EDTA) was added. […] Initial screening was done at 100 or 10 μM concentration of inhibitors. […] GraphPad Prism software was used to calculate the IC50 values. The result is given as the average value of three independent measurements.

Assay [2] deals with Pseudomonas aeruginosa MTCC 741. Briefly: In vitro antibacterial activity (CLSI M07-A10 dilution MIC). Format: cell-based. The settings on record: MTCC741. An excerpt:
(§1) Staphylococcus epidermidis, Bacillus subtilis, Enterococcus faecium, Enterococcus faecium resistant to VRE, and Gram-negative organisms including Klebsiella pneumonia, Escherichia coli, and Pseudomonas aeruginosa.

Assay [3] deals with Staphylococcus epidermidis. The assay is described as above. Format: cell-based.
Source text: as §1

Assay [4] relates to Bacillus subtilis MTCC 441. Described as above. It counts as cell-based. As to conditions: MTCC441.
Source text: as §1

Assay [5] has as its system Staphylococcus aureus ATCC BAA-1556 (MERSA resistant). Described as above. The settings on record: ATCCBAA1556. It counts as cell-based.
Source text: as §1

The test system of assay [6] is Enterococcus faecium ATCC 35667. The assay is described as above. It counts as cell-based. As to conditions: ATCC35667.
Source text: as §1

In assay [7] the test system is Enterococcus faecium ATCC 51559 (VRE resistant). Described as above. Format: cell-based.
Source text: as §1

Assay [8] relates to Klebsiella pneumonia MTCC 618. The description is as above. Format: cell-based. As to conditions: Klebsiella pneumoniae, MTCC618.
Source text: as §1

Assay [9] has as its system Staphylococcus aureus ATCC 29213. The description is as above. Format: cell-based. The settings on record: ATCC29213.
Source text: as §1

For assay [10], the system named is Escherichia coli MTCC 443. Described as above. It counts as cell-based.
Source text: as §1

The mark [11] stands for this setting: Escherichia coli MTCC 443 + efflux pump inhibitor PAβN (200 μg/mL).

T1 sequence (P0AES4 whole entry, one chain of several): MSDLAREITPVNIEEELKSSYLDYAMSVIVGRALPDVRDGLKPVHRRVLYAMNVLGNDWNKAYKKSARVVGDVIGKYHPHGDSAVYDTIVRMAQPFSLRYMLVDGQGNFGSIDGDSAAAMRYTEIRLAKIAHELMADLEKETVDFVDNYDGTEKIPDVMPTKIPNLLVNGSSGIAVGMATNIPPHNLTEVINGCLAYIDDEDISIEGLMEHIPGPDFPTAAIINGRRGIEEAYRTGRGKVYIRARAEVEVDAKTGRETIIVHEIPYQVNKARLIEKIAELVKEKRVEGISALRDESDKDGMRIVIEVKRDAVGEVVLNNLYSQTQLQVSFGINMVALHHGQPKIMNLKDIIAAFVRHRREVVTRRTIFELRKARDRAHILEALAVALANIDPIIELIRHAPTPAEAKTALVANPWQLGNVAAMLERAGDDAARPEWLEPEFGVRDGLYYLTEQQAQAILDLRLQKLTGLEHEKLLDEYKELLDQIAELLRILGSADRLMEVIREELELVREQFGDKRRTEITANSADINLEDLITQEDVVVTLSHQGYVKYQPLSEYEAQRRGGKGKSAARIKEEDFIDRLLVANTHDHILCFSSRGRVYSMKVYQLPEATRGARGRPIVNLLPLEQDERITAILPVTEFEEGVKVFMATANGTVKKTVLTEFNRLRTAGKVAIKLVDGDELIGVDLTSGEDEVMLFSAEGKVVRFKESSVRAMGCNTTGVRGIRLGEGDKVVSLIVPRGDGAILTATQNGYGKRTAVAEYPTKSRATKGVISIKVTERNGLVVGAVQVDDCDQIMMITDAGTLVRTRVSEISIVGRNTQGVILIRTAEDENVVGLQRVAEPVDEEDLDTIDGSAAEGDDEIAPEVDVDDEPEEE

With `CCCCCN(C)Cc1cc(C(=O)O)ccc1-n1ccc2c([nH]c3c(NC)cc(F)cc32)c1=O` [Compound 6, 4-(6-fluoro-8-(methylamino)-1-oxo-1,9-dihydro-2H-pyrido[3,4-b]indol-2-yl)-3-((methyl(pentyl)amino)methyl)benzoic acid], the MIC (in general, the least concentration at which growth counts as inhibited) came to 8 mg/L (≈ 17.2 µM) in [1]; 0.75 mg/L (≈ 1.61 µM) in assay [2] (Pseudomonas aeruginosa MTCC 741, read-out: MIC); 0.75 mg/L (≈ 1.61 µM) in assay [3] (read-out: MIC); 0.5 mg/L (≈ 1.08 µM) in assay [4] (Bacillus subtilis MTCC 441, read-out: MIC); 0.75 mg/L (≈ 1.61 µM) in assay [5] (Staphylococcus aureus ATCC BAA-1556 (MERSA resistant), read-out: MIC); 0.5 mg/L (≈ 1.08 µM) in assay [6] (Enterococcus faecium ATCC 35667, read-out: MIC). For the same molecule, the MIC in assay [7] (Enterococcus faecium ATCC 51559 (VRE resistant), read-out: MIC) was 0.5 mg/L (≈ 1.08 µM); in assay [8] (Klebsiella pneumonia MTCC 618, read-out: MIC), 1 mg/L (≈ 2.15 µM); in assay [9] (Staphylococcus aureus ATCC 29213, read-out: MIC), 0.75 mg/L (≈ 1.61 µM); in assay [10] (setting [11]) it was 0.5 mg/L; in [10] (MTCC443, Escherichia coli MTCC 443, read-out: MIC) it was 8 mg/L (≈ 17.2 µM). Moreover, at DNA gyrase from E. coli, the midpoint of inhibition, the IC50, lay at 0.018 µM.

Consider `CN[C@H](CC(C)C)C(=O)N[C@H]1C(=O)N[C@@H](CC(N)=O)C(=O)N[C@H]2C(=O)N[C@H]3C(=O)N[C@H](C(=O)N[C@H](C(=O)O)c4cc(O)cc(O)c4-c4cc3ccc4O)[C@H](O)c3ccc(c(Cl)c3)Oc3cc2cc(c3O[C@@H]2O[C@H](CO)[C@@H](O)[C@H](O)[C@H]2O[C@H]2C[C@](C)(N)[C@H](O)[C@H](C)O2)Oc2ccc(cc2Cl)[C@H]1O` [Vancomycin, reference compound], for which the MIC in assay [2] (Pseudomonas aeruginosa) is > 128 mg/L; in assay [3] it was 1 mg/L (≈ 0.69 µM); in [4] (Bacillus subtilis), 0.5 mg/L (≈ 0.345 µM); in assay [5] (Staphylococcus aureus) it was 1 mg/L (≈ 0.69 µM); in assay [6] (Enterococcus faecium), 0.5 mg/L (≈ 0.345 µM); in assay [7] (Enterococcus faecium), > 128 mg/L. Also, the MIC in [8] was > 128 mg/L; in [9] (Staphylococcus aureus) it was 1 mg/L (≈ 0.69 µM); in assay [10] (setting [11]), >128 mg/L; in [10] (Escherichia coli, MTCC443) it was > 128 mg/L.
